Measurements from PubChem BioAssay AID1645863 (Buhrlage Lab, Dana-Farber Cancer Institute and Novartis …, 2021).
The source made the active and inactive calls. How the calls were made is not given here.

Biological target: Ubiquitin carboxyl-terminal hydrolase 10 (Homo sapiens) (UniProt Q14694)
Test: primary hit verification, biochemical, ubiquitin-specific protease 10 deubiquitylase inhibitors, concentration-effect titration (AID 1645863);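 further: potency values describe inhibition of USP10 cleavage of a fluorogenic ubiquitin substrate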
Details: USP10 deubiquitinase enzymatic assay

Sequence of Ubiquitin carboxyl-terminal hydrolase 10 (Homo sapiens) (Q14694 whole entry, looked up): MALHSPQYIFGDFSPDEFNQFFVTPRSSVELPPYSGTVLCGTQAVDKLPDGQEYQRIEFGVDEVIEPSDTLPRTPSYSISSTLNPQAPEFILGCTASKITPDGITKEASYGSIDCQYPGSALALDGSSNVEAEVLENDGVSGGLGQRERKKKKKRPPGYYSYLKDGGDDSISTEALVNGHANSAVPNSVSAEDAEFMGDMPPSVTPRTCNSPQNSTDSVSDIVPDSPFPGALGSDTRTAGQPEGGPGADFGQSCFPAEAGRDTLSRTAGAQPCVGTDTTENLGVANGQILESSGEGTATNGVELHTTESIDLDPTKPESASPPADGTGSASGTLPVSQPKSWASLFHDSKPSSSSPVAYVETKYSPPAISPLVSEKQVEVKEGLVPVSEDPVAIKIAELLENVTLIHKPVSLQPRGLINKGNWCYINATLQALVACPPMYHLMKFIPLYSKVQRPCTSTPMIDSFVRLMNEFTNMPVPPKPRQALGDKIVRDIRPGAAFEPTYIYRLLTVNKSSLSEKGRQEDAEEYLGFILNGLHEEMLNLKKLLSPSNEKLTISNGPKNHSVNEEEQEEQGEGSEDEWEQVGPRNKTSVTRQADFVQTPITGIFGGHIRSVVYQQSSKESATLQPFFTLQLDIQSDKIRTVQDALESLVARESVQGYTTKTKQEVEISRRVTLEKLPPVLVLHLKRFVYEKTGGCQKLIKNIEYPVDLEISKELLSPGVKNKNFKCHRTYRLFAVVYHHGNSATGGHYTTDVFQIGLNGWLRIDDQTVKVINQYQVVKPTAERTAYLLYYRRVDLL

SMILES | IC50
COc1cc2cc3c(c(O)c2c(O)c1-c1c(OC)cc2cc4c(c(O)c2c1O)C(=O)OC1CC(C)OC41)C(=O)OC1CC(C)OC31 (stereo unspecified) | 9.21 µM
Cc1c(NC(=O)/C=C/c2cccc(Cl)c2Cl)cccc1-n1cnnn1 | > 40 µM (inactive)
COc1ccc(NC(=O)Cn2c(C)cc(=O)n3nc(-c4cccc(C)c4)nc23)cc1 | 37 µM
Cc1ncc(-c2ccc3c(c2)OCO3)c(-c2nccs2)n1 | > 40 µM (inactive)
Cc1cccc(N2C(=O)/C(=C\c3cc(C#N)n(C)c3C)c3ccccc3C2=O)c1 | 34.1 µM
COc1ccc(NC(=O)Cn2c(=O)n(-c3ccc(CC(=O)NCc4ccco4)cc3)c(=O)c3ccccc32)cc1Cl | 15.1 µM
Cc1csc(NC(=O)c2c[nH]c3ccc(F)cc3c2=O)n1 | > 40 µM (inactive)
CCCn1c(=O)c2sccc2n2c(CCC(=O)N3CCc4ccccc4C3)nnc12 | > 40 µM (inactive)
Cc1ccccc1-c1noc(-c2cccn(CC(=O)Nc3ccccc3F)c2=O)n1 | > 40 µM (inactive)
Cc1nc(SCC(=O)NC(C)c2ccccc2)c2oc3ccccc3c2n1 (stereo unspecified) | > 40 µM (inactive)
COc1cc(OC)c(NC(=O)c2cc(-c3ccccn3)n[nH]2)cc1Cl | 28.9 µM
COc1cc(C2CC(=O)c3c([nH]c(C(=O)OCCOc4ccccc4)c3C)C2)cc(OC)c1OC (stereo unspecified) | > 40 µM (inactive)
O=C(COc1ccc(N2CC(C(=O)NCc3ccc4c(c3)OCO4)CC2=O)cc1)Nc1ccc(F)cc1 (stereo unspecified) | 20.8 µM
Cc1ccc2c(c1)N=C(c1ccc([N+](=O)[O-])cc1)CO2 | > 40 µM (inactive)
COc1ccc(CCNC(=O)Cn2c(=O)c3sccc3n(Cc3cccc([N+](=O)[O-])c3)c2=O)cc1OC | 16 µM
Cc1cc(-c2nnc(SCC(=O)Nc3ccc(Br)c(C)c3)n2N)n[nH]1 | > 40 µM (inactive)
COCCCN1CCS(=O)(=O)c2c(Cl)c(F)nc(Oc3ccc(C#N)cc3)c21 | > 40 µM (inactive)
COCCCNC(=O)c1ccc(Cn2c(=O)c3ccccc3n(CC(=O)Nc3ccc(OC)cc3)c2=O)cc1 | > 40 µM (inactive)

SMILES | IC50
Cc1ccc2[nH]c(=O)c(CN(CC3COCCO3)S(=O)(=O)c3ccc(F)cc3)cc2c1 (stereo unspecified) | > 40 µM (inactive)
O=c1[nH]c(C2CCN(S(=O)(=O)c3ccc(S(=O)(=O)NC4CC4)cc3)CC2)nc2c1nnn2Cc1c(Cl)cccc1Cl | 27.5 µM
COc1ccc(C)cc1NC(=O)Nc1nnc(CC(=O)NCc2ccccc2)s1 | > 40 µM (inactive)
O=C(CSc1ccc(-c2cccc([N+](=O)[O-])c2)nn1)Nc1cccc(F)c1 | 15.9 µM
O=C(Cn1c(=O)[nH]c2c(-c3ccccc3)c[nH]c2c1=O)NCc1ccccc1Cl | > 40 µM (inactive)
CCOc1ccc(CCNC(=O)Cn2c(-c3ccc(F)cc3)cc(C(C)=O)c2C)cc1OCC | > 40 µM (inactive)
COc1cc(CC(=O)Nc2ccccc2N2CCOCC2)cc(OC)c1OC | > 40 µM (inactive)
COC(=O)c1ccc(C(=O)Nc2cc3ccccc3cc2NC(=O)c2ccc(C(=O)OC)cc2)cc1 | > 40 µM (inactive)
Cc1ccc(NC(=O)Nc2ccc(C)n(CC(=O)Nc3cccc(C)c3)c2=O)cc1 | > 40 µM (inactive)
CC(C)=CCOC(C)(C)[C@H]1OC2CC[C@@]3(C)C(CCC4Cc5c([nH]c6ccccc56)[C@@]43C)C23OC3[C@@H]1O (stereo partly specified) | 10.6 µM
Cc1ccc(C(=O)NCc2ccc(C(=O)Nc3ccc(Cl)cc3)o2)cc1 | > 40 µM (inactive)
Cc1ccc(Nc2nc(O)c(CC(=O)Nc3ccc(C)cc3C)s2)cc1 | 14.6 µM
CCc1nc(SCC(=O)Nc2cc(Cl)ccc2C)c2oc3ccccc3c2n1 | 1.14 µM
CCOc1ccc(NC(=O)Cn2c(=O)n(CCC(=O)NCc3ccco3)c(=O)c3ccccc32)cc1 | 24.4 µM
COc1ccc(NC(=O)Cn2c(=O)n(CCC(=O)NCc3ccccc3)c(=O)c3sccc32)cc1Cl | > 40 µM (inactive)
CCOc1ccc(-c2nnc(-c3cnc4onc(C5CCCC5)c4c3)o2)cc1 | 25 µM
Cc1ccc(NC(=O)c2cc(-c3cccnc3)n[nH]2)cc1F | > 40 µM (inactive)
Cc1ccccc1Cn1c(=O)n(CC2CCC(C(=O)NC3CCCC3)CC2)c(=O)c2ccccc21 (stereo unspecified) | > 40 µM (inactive)
